Data as given in PMC9656205, “In Vitro/In Vivo Translation of Synergistic Combination of MDM2 and MEK Inhibitors in Melanoma Using PBPK/PD Modelling: Part I” (International Journal of Molecular Sciences, 2022).
Read-outs that look alike come from different tables or passages of the source. One block for each compound: values may come before it.

How the values were obtained:
[1] = Pharmacokinetics in plasma and A375 tumour tissue after single oral administration; format: in vivo, CD-1 nude mice; conditions: female, Crl:CD-1-Foxn1nu (CD-1 nude), mouse; for Cmax: n = 3; for AUC(0-t): n = 3, read-out: AUC0–24h ± SD
Experimental: Pharmacokinetic profiles were determined after single oral administration of HDM201 (100 mg/kg) and Trametinib (1 mg/kg) in vehicle formulation in CD-1 nude mice. Initial analysis of compound concentrations included plasma and A375 tumour tissue homogenates.
(§1) Crl:CD-1-Foxn1^nu female mice, 4–5 weeks old, from Charles River Germany, inoculated subcutaneously with A375 cells, were used for in vivo studies. Determination of compound concentrations in plasma and A375 tumour tissue homogenates were performed with the use of quantitative LC-MS/MS system. Plasma and tissue samples were resected at the following timepoints: 1.5, 4, 8, 24 h (n = 3 per timepoint) after oral administration. Pharmacokinetic parameters AUC, Cmax, and Tmax were calculated using MS Excel 2016. Area under the concentration versus time curve was calculated using the linear trapezoidal rule.

A375 cells [2] = system: A375 cells; parameters: method as in PMID 22169769; conditions: cell count by DAPI nuclei staining, read-out: Literature IC50; cited from earlier work
A375 cells [3] = assay: Mean of MTS and RealTime-Glo assays (cytotoxicity / drug interaction metrics); format: cell-based, human
Experimental: (§2) Inhibition of tumour cell viability after single and combination drug treatment was measured with the use of MTS assay (CellTiter 96® AQueous Non-Radioactive Cell Proliferation Assay) and RealTime-Glo assay (RealTime-Glo™ MT Cell Viability Assay) in A375 cell line using standard manufacturer protocols. […] Drug combinations were tested in the matrix layout with the increasing concentrations of both drugs (please see Figures S1 and S2). […] Several independent assay repetitions were performed for MTS (n = 4) and RealTime-Glo assays (n = 3).
(§3) Drug combination interaction analysis was performed on in vitro cytotoxicity data from MTS and RealTime-Glo assays. […] For Synergyfinder analysis parameters, see Table S4. For a more detailed description of all Synergyfinder functions, please see its documentation and user instructions.

A375 cells [4] = assay: RealTime-Glo MT cell viability assay, cytotoxicity and drug interaction analysis; format: cell-based; conditions: Homo sapiens, A-375, n = 3; for IC50: A375 cells, 72 h incubation, read-out: RealTime-Glo IC50 ± SD
Experimental: as §2, §3

[5] = system: A375 melanoma tumour model; assay: In vivo efficacy, tumour growth inhibition in A375 xenograft; parameters: species or system CD-1 nude mice; conditions: n = 6
Experimental: The studied compounds, namely HDM201 and Trametinib, were tested separately and in combination as a therapy against an A375 melanoma tumour model. Tested compounds were administrated in three and six doses per schedule. […] Data from this efficacy study indicate that HDM201 and Trametinib are more efficacious when they are used in combination, compared to their efficacy when administered separately (please refer to maximal tumour growth inhibition (TGI) percentage, presented in Table 7, and compounds efficacy in single and combined administrations, shown in Figure 9).
as §1
Determination of tumour growth was performed after oral gavage of Vehicle (60% PEG 400 (v/v), 10% Cremophor RH40 (v/v), 10% EtOH (v/v) and 20% Labrafil M1944CS (v/v)), Siremadlin, Trametinib or their combination in Vehicle. The volume of the administered formulation (10 mL/kg) of the compounds was always adjusted to the mice body weight.
Tumour volume (V) was recorded with an electronic calliper 2–3 times a week and was calculated based on its length and width, using the prolate ellipsoid equation [46] (Equation (1)):V (mm^3) = d^2 × D/2(1) where d is the tumour width (mm) and D is the tumour length (mm).
Tumour growth inhibition (TGI) value was calculated using Equation (2):TGI (%) = (100 − (T/C × 100))(2) where C is the mean tumour size in control group (mm^3) and T is the mean tumour size in treated group (mm^3).

A375 cells [6] = assay: MTS assay (CellTiter 96 AQueous) cytotoxicity and drug interaction analysis; format: cell-based; conditions: Homo sapiens, A-375; for IC50: A375 cells, 72 h incubation, read-out: MTS IC50 ± SD
Experimental: as §2, §3

A375 cells [7] = system: A375 cells; parameters: method as in PMID 30135191; conditions: cell count by amount of ATP (CellTiter-Glo assay), read-out: Literature IC50; cited from earlier work
[8] = A375 tumour tissue homogenate, 1 mg/kg, Trametinib 1 mg/kg single oral, with HDM201 100 mg/kg, A375 tumour
[9] = A375 tumour tissue homogenate, 1 mg/kg, Trametinib 1 mg/kg single oral, without HDM201, A375 tumour
[10] = plasma, 1 mg/kg, Trametinib 1 mg/kg single oral, with HDM201 100 mg/kg, plasma
[11] = plasma, 1 mg/kg, Trametinib 1 mg/kg single oral, without HDM201, plasma
[12] = plasma, range stated jointly for HDM201 and Trametinib, oral, mice, sparse sampling, read-out: typical Tmax
[13] = A375 tumour tissue homogenate, 100 mg/kg, HDM201 100 mg/kg single oral, without Trametinib, A375 tumour
[14] = A375 tumour tissue homogenate, HDM201 100 mg/kg single oral, with Trametinib 1 mg/kg, A375 tumour
[15] = plasma, 100 mg/kg, HDM201 100 mg/kg single oral, without Trametinib, plasma
[16] = plasma, HDM201 100 mg/kg single oral, with Trametinib 1 mg/kg, plasma

Cmax [1, 8]: 0.715 ± 0.197 µM | AUC(0-t) [1, 8]: 9.66 ± 1.39 µM·h | Tmax ([1]; A375 tumour tissue homogenate, 1 mg/kg, Trametinib 1 mg/kg single oral, with HDM201 100 mg/kg, A375 tumour, n = 3, read-out: Tmax ± SD): 4 h | Cmax [1, 9]: 0.587 ± 0.0663 µM | AUC(0-t) [1, 9]: 9.13 ± 1.3 µM·h | Tmax ([1]; A375 tumour tissue homogenate, 1 mg/kg, Trametinib 1 mg/kg single oral, without HDM201, A375 tumour, n = 3, read-out: Tmax ± SD): 4 h | Cmax [1, 10]: 0.354 ± 0.106 µM | AUC(0-t) [1, 10]: 4.48 ± 1.17 µM·h | Tmax ([1]; plasma, 1 mg/kg, Trametinib 1 mg/kg single oral, with HDM201 100 mg/kg, plasma, n = 3, read-out: Tmax ± SD): 4 ± 1.44 h | Cmax [1, 11]: 0.567 ± 0.0494 µM | AUC(0-t) [1, 11]: 5.58 ± 0.567 µM·h | Tmax ([1]; plasma, 1 mg/kg, Trametinib 1 mg/kg single oral, without HDM201, plasma, n = 3, read-out: Tmax ± SD): 4 ± 1.44 h | Tmax [1, 12]: 1.5 to 4 h
Structure (SMILES): CC(=O)Nc1cccc(-n2c(=O)n(C3CC3)c(=O)c3c(Nc4ccc(I)cc4F)n(C)c(=O)c(C)c32)c1 [Trametinib]
IC50 (A375 cells [2]): 1 nM | % of viability at the last measurement ± SD (A375 cells [3]; Trametinib): 14.097 ± 2.594% | IC50 (A375 cells [4]): 0.8 ± 0.4 nM | viability at 0.04 µM (A375 cells [4]; RealTime-Glo, max concentration 40 nM, last observation after 80h, read-out: % of viability at the last measurement ± SD): 14.9 ± 2.59% | Max TGI (%) ± SEM ([5]; Trametinib 0.3 mg/kg qdx6, oral): 65.47 ± 21.29% | Max TGI (%) ± SEM ([5]; Trametinib 1 mg/kg qdx6, oral): 90.05 ± 1.13% | IC50 (A375 cells [6]; n = 4): 0.58 ± 0.03 nM | viability at 0.004 µM (A375 cells [6]; MTS, max concentration 4 nM, last observation after 72h, n = 4, read-out: % of viability at the last measurement ± SD): 13.3 ± 2.6%

Cmax [1, 13]: 16.2 µM | AUC(0-t) [1, 13]: 179 µM·h | Tmax ([1]; A375 tumour tissue homogenate, 100 mg/kg, HDM201 100 mg/kg single oral, without Trametinib, A375 tumour, n = 3, read-out: Tmax ± SD): 1.5 ± 1.44 h | Cmax [1, 14]: 28.6 µM | AUC(0-t) [1, 14]: 219 µM·h | Tmax ([1]; A375 tumour tissue homogenate, HDM201 100 mg/kg single oral, with Trametinib 1 mg/kg, A375 tumour, n = 3, read-out: Tmax ± SD): 1.5 ± 1.44 h | Cmax [1, 15]: 9.78 ± 2.98 µM | AUC(0-t) [1, 15]: 95.1 µM·h | Tmax ([1]; plasma, 100 mg/kg, HDM201 100 mg/kg single oral, without Trametinib, plasma, n = 3, read-out: Tmax ± SD): 1.5 ± 1.44 h | Cmax [1, 16]: 14.6 µM | AUC(0-t) [1, 16]: 108 µM·h | Tmax ([1]; plasma, HDM201 100 mg/kg single oral, with Trametinib 1 mg/kg, plasma, n = 3, read-out: Tmax ± SD): 1.5 ± 1.44 h | Tmax [1, 12]: 1.5 to 4 h
Structure (SMILES): COc1ncc(-c2nc3c(n2C(C)C)[C@H](c2ccc(Cl)cc2)N(c2cc(Cl)cn(C)c2=O)C3=O)c(OC)n1 [Siremadlin (HDM201), Siremadlin]
IC50 (A375 cells [7]): 764 nM | % of viability at the last measurement ± SD (A375 cells [3]; Siremadlin): 21.445 ± 6.389% | IC50 (A375 cells [4]): 260 ± 170 nM | viability at 4 µM (A375 cells [4]; RealTime-Glo, max concentration 4000 nM, last observation after 80h, read-out: % of viability at the last measurement ± SD): 21 ± 6.86% | Max TGI (%) ± SEM ([5]; HDM201 40 mg/kg qdx3, oral): 33.39 ± 13.90% | Max TGI (%) ± SEM ([5]; HDM201 100 mg/kg qdx3, oral): 76.94 ± 5.38% | IC50 (A375 cells [6]; n = 4): 65.7 ± 4.7 nM | viability at 0.2 µM (A375 cells [6]; MTS, max concentration 200 nM, last observation after 72h, n = 4 (resistant population estimate), read-out: % of viability at the last measurement ± SD): 21.9 ± 5.92%
